Laboratory results as given in US3974281A, “5-Methyl-1-phenyl-2-(1H)-pyridone compositions and methods of use” (priority 1974, dated 1976).

Tests used:
[1] = test system: rat lung tissues; test: Protection of mucous membranes against noxious agents, gross examination of rat lung tissues; type: in vivo
[2] = Solubility; type: physicochemical
[3] = test system: experimentally-induced fever in albino rabbits; test: Anti-pyretic activity, experimentally-induced fever in rabbits; type: in vivo
Protocol: anti-pyretic activity testing is based upon the ability of the drug to suppress the experimentally-induced fever in albino rabbits (F. M. Berger, et al. J. Pharmacology and Experimental Therapeutics, Vol. 127, No. 1, 1959 based upon the original presentations of G. Brownlee Quart. J. Pharm; Vol. 10, Pg. 609, 1937 and Quart. J. Pharm., Vol. 12, Pg. 45, 1939). The drugs under test are administered intraperitoneally and the response is compared to that of saline controls. The average change in temperature over a period of three hours following the administration of aminopyrine (100 mg./kg. i.p.), AMR-69 (100 mg./kg. i.p.) and the saline (isotonic) controls were as follows:
The effective anti-pyretic activity of AMR-69 in rabbits has been noted previously.

Cc1ccc(=O)n(-c2ccccc2)c1 [AMR-69, 5-methyl-1-phenyl-2-(1H)-pyridone]
protection against noxious focal respiratory tract pathology (petechiae, edema, hemorrhage, focal infection) [1]: affording protection against noxious focal respiratory tract pathology
solubility compared with other analgesic uricosuric agents [2]: more readily soluble than other analgesic uricosuric agents
average change in temperature over a period of three hours ([3]; 100 mg./kg. i.p., fevered albino rabbits, saline controls +0.9 ±0.17°C): -0.4 ±0.12 °C
reduction in fever as compared to the saline control ([3]; 100 mg./kg. i.p., aminopyrine t = 6.6, p < 0.01, AMR-69 t = 6.3, p < 0.01): highly significant
anti-pyretic activity ([3]; rabbits, induced fever): effective anti-pyretic agent
